pIC50: −log10 of the molar value.
Columns and labels:
L-Selectin = details: cited from earlier work
[1] = system: E-SELECTIN (E Selectin-IgG chimera); experiment: ELISA: inhibition of E-selectin binding to 2,3 sLex glycolipid
Description: (§1) E-SELECTIN transfected COS cells produced by the above method may be used to assay for glucuronyl glycolipid ligands. Similarly, COS cells may be transfected with cDNAs that encode L-SELECTIN and/or P-SELECTIN. The production and characterization of L-SELECTIN IgG chimera constructs have been previously described by Watson S. R. et al., (1990) J. Cell Biol. 110:2221-2229. This chimera contains two complement binding domains, consistent with its natural expression. See Watson S. R. et al., (1991) J. Cell Biol. 115:235-243. P-SELECTIN chimera was constructed in a similar manner as described by Walz, G., et al (1990) Science 250, 1132-1135, and Aruffo, A. et al. (1991) Cell, 67, 35-44, respectively. The chimeras may be expressed in a suitable host cell, for example, 293 cells and purified. Protein A affinity chromatography is the preferred method of purification. E-SELECTIN and P-SELECTIN may be constructed with truncated complement binding domains to standardize the size of the chimeras and to facilitate their secretion. A variation of the above assay is to genetically engineer cells to express high levels of L-SELECTIN, E-SELECTIN, or P-SELECTIN on their surface, and to use the cells in lieu of purified selectin. Radiolabeled COS cells have been used in this type of assay, and can be transfected with cDNA that encodes for L-SELECTIN, E-SELECTIN or P-SELECTIN. […] The number of adherent cells reflects the capacity of the ligand to bind to the selectin.
(§2) Compounds 13a, 13b, 26 and 31 were tested for their capacity to bind to E, L and P selectin. The ELISA assay used consists of evaporating 2,3 sLex glycolipid, at 25 picomoles per well, onto microtiter wells, and then washing the excess off with water. The wells are blocked with 5% BSA at room temperature for an hour and then washed with PBS containing 1 mM Ca. While the plate is being blocked, biotin labelled goat F(ab')2 IgG (Fc specific) and streptavidinalkaline phosphatase diluted 1:1500 in 1% BSA-PBS (1 mM Ca) are combined with either the E, L or P Selectin-IgG chimera (L91-10) at 200 ng/mL and incubated at 37° C. for 15 minutes to allow a complex to form. This provides a soluble "multivalent" receptor. Compounds 13a and 13b were added at final concentrations ranging from 1.5 to 5.0 mM to the soluble receptor and allowed to react at 37° C. for 45 minutes. The solutions were then placed in the microtiter wells that had been washed after being blocked, and the plates incubated at 37° C. for 45 minutes to allow the soluble receptor to bind to the known natural ligand, 2,3 sLex glycolipid. The positive control was the signal produced by soluble "multivalent" receptor reacted with only the ligand evaporated to the microtiter well. This was considered "100% binding." The signal produced by receptor previously reacted with inhibitor is divided by the signal produced by the positive control, multiplied by 100, to calculate % receptor bound in the presence of the inhibitor. The reciprocal of this is % inhibition.

[2] = system: L-SELECTIN (L Selectin-IgG chimera); experiment: ELISA: inhibition of L-selectin binding to 2,3 sLex glycolipid
Description: as §1
as §2, with “Compounds 13a and 13b were added at final concentrations ranging from 1.5 to 5.0 mM to the soluble receptor and allowed to react at 37° C. for 45 minutes.” left out

[3] = system: neutrophil-dependent injury to the lung endothelium and alveolar epithelium; experiment: Acute Lung Injury Assay (acid aspiration injury); type: in vivo, New Zealand White rabbits; details: 10 mg/kg/hr IV; for Alveolar-arterial blood oxygen gradient: as compared to control animals
Description: Experiments were done to determine the effectiveness of compounds 13b or 31 in their ability to reduce neutrophil-dependent injury to the lung endothelium and alveolar epithelium following acid aspiration injury.
Female New Zealand White rabbits (1 each/group, approx. 2 KG each) were anesthetized with halothane and ventilated with positive pressure ventilation supplemented with oxygen. Vascular catheters were placed in the carotid artery, into the internal jugular vein, and a tracheostomy was made for positive pressure ventilation. A low pH solution (HCl, pH 1.5) was installed in Ringer's lactate (osmolality=approximately 100) at a dose of 3 ml/kg into the trachea to stimulate a gastric aspiration induced lung injury. Compound 13b or 31 were injected (10 mg/kg/hr IV) 5 minutes prior to intratracheal instillation of the low pH solutions continued by hourly injections until the end of the experiment. Appropriate controls were used. An intravascular as well as an intra-alveolar radiolabelled protein tracer was injected to quantify lung endothelial and alveolar epithelial protein permeability. Arterial blood gases, systemic blood pressure and airways were monitored. At the end of 6 hours the lungs were removed and alveolar fluid was sampled from both lungs in order to measure the concentration of native protein as well as radiolabelled proteins in the airspaces to calculate lung vascular and lung epithelial permeability. Also, one lung was lavaged in order to count the neutrophils that are present in the airspaces of the lungs. Extravascular lung water measurements was done on the lung which was not lavaged. Histological samples were taken from selected portions of the lung.

[4] = system: adhesion of human neutrophils in the rabbit isolated heart; experiment: Reperfusion Injury Assay: complement-induced neutrophil adhesion in isolated perfused heart; design: species or system human neutrophils; New Zealand White rabbit heart
Description: Experiments were done to determine the effectiveness of compound 13b in decreasing adhesion of human neutrophils in the rabbit isolated […]. Addition of the human plasma to the rabbit isolated […] results in activation of the complement components found within the plasma, which in turn promotes an increase in the neutrophil accumulation. This model is used to determine the effect of lactose derivatives on inhibiting complement-induced neutrophil adhesion.
Hearts from New Zealand White rabbits were excised, mounted on a modified Langendorff apparatus and perfused with Krebs-Heinseleit buffer. Cardiac functional parameters were monitored upon a Grass Model 79D polygraph machine. 4% normal human plasma (NHP) was added to the recirculating buffer. Ten minutes after the addition of the plasma, 13b (0.1 mg/ml) was added to the perfusate. After 15 minutes of perfusion with the plasma, 51-chromium labelled human neutrophils (1×10^5 /ml) were added to the perfusate and allowed to recirculate for an additional 15 minutes. At the end of this time the hearts were washed with fresh buffer to remove non-specifically bound neutrophils, dried and counted in a well type gamma-counter. A concentration response curve was generated using concentrations of 0.001, 0.01 and 0.1 mg/ml. Six hearts were used for each of these concentrations.
Table 4 lists the results, expressed as the percent inhibition of neutrophil accumulation.

mammalian hepatocytes = details: Lee et al. 1984, read-out: IC50 for inhibition of labeled ASOR binding; cited from earlier work
P-SELECTIN = details: cited from earlier work
[5] = system: P-SELECTIN (P Selectin-IgG chimera); experiment: ELISA: inhibition of P-selectin binding to 2,3 sLex glycolipid
Description: as §1, §2

Question: Which “binding to L-Selectin” value (L-Selectin) does the source give for CC(=O)NC1C(O)CC(OC2C(O)C(CO)OC(OC3C(CO)OC(O)C(NC(C)=O)C3OC3OC(C)C(O)C(O)C3O)C2O)(C(=O)O)OC1C(O)C(O)CO (stereo not drawn) [sialyl Lewis X, NeuNAc α2-3-Gal-β1-4(Fucα1-3)-GlcNAc] here?
Answer: binds

Question: With C[C@@H]1O[C@@H](O[C@@H]2[C@@H](O)[C@H](OCC[Si](C)(C)C)O[C@H](CO)[C@H]2O[C@@H]2O[C@H](CO)[C@H](O)[C@H](OS(=O)(=O)O)[C@H]2O)[C@@H](O)[C@H](O)[C@@H]1O [Compound 13a, 2-(Trimethylsilyl) ethyl O-α-L-fucopyranosyl-(1→3)-O-[sodium-β-D-galactopyranosyl3-sulfate-(1→4)]-β-D-glucopyranoside] as the molecule, how does the “inhibition of binding of E selectin to 2,3 sLex glycolipid (in words)” value [1] read?
Answer: inhibit binding of E selectin to 2,3 sLex glycolipid

Question: What about the “% INHIBITION of E-selectin binding to sLeX” value ([1]; 1.25 mM) of the same molecule?
Answer: 30%

Question: And the “% INHIBITION of E-selectin binding to sLeX” value ([1]; 2.5 mM)?
Answer: 34%

Question: What about the “% INHIBITION of E-selectin binding to sLeX” value ([1]; 5.0 mM) of the same molecule?
Answer: 48%

Question: What about the “inhibition of binding of L selectin to 2,3 sLex glycolipid (in words)” value [2] of the same molecule?
Answer: inhibit binding of L selectin

Question: And the “% INHIBITION of L-selectin binding to sLeX” value ([2]; 1.25 mM)?
Answer: 13%

Question: What about the “% INHIBITION of L-selectin binding to sLeX” value ([2]; 2.5 mM) of the same molecule?
Answer: 27%

Question: And the “% INHIBITION of L-selectin binding to sLeX” value ([2]; 5.0 mM)?
Answer: 47%

Question: Which “inhibition of binding of E selectin to 2,3 sLex glycolipid (in words)” value [1] does the source give for CCCCCCCCO[C@@H]1O[C@H](CO)[C@@H](O[C@@H]2O[C@H](CO)[C@H](O)[C@H](OS(=O)(=O)O)[C@H]2O)[C@H](O)[C@H]1O [Compound 31, Octyl 4-O-(sodium β-D-galactopyranosyl 3-sulfate)-β-glucopyranoside] here?
Answer: inactive

Question: And the “% INHIBITION of E-selectin binding to sLeX” value ([1]; 0.5 mM)?
Answer: 0%

Question: And the “% INHIBITION of E-selectin binding to sLeX” value ([1]; 1.0 mM)?
Answer: 0%

Question: What about the “% INHIBITION of E-selectin binding to sLeX” value ([1]; 2.0 mM) of the same molecule?
Answer: 0%

Question: And the “% INHIBITION of E-selectin binding to sLeX” value ([1]; 4.0 mM)?
Answer: 0%

Question: And the “inhibition of binding of L selectin to 2,3 sLex glycolipid (in words)” value [2]?
Answer: inactive

Question: What about the “% INHIBITION of L-selectin binding to sLeX” value ([2]; 0.5 mM) of the same molecule?
Answer: 0%

Question: And the “% INHIBITION of L-selectin binding to sLeX” value ([2]; 1.0 mM)?
Answer: 0%

Question: And the “% INHIBITION of L-selectin binding to sLeX” value ([2]; 2.0 mM)?
Answer: 0%

Question: And the “% INHIBITION of L-selectin binding to sLeX” value ([2]; 4.0 mM)?
Answer: 0%

Question: And the “Alveolar-arterial blood oxygen gradient” value [3]?
Answer: decrease

Question: And the “neutrophil-dependent injury to the lung endothelium and alveolar epithelium” value ([3]; following acid aspiration injury)?
Answer: effectively reduced neutrophil-dependent injury

Question: Which results are given for C[C@@H]1O[C@@H](O[C@H]2[C@H](O[C@@H]3O[C@H](CO)[C@H](O)[C@H](OS(=O)(=O)O)[C@H]3O)[C@@H](CO)OC(O)[C@@H]2O)[C@@H](O)[C@H](O)[C@@H]1O (stereo partly drawn) [Compound 13b, O-α-L-fucopyranoayl-(1→3)-O-[sodium β-D-galactopyranosyl 3-sulfate-(1→4)]-D-glucopyranose]?
Answer: inhibition of binding of E selectin to 2,3 sLex glycolipid (in words) [1]: inhibit binding of E selectin to 2,3 sLex glycolipid; % INHIBITION of E-selectin binding to sLeX ([1]; 1.25 mM): 48.5%; % INHIBITION of E-selectin binding to sLeX ([1]; 2.5 mM): 45.4%; % INHIBITION of E-selectin binding to sLeX ([1]; 5.0 mM): 82.5%; inhibition of binding of L selectin to 2,3 sLex glycolipid (in words) [2]: inhibit binding of L selectin; % INHIBITION of L-selectin binding to sLeX ([2]; 1.25 mM): 90%; % INHIBITION of L-selectin binding to sLeX ([2]; 2.0 mM): 100%; % INHIBITION of L-selectin binding to sLeX ([2]; 2.5 mM): 100%; Alveolar-arterial blood oxygen gradient [3]: decrease; degree of inhibition of neutrophil adhesion (in words) ([4]; 0.1 mg/ml): most significant degree of inhibition; inhibition of neutrophil adhesion (in words) ([4]; 0.001, 0.01 and 0.1 mg/ml): inhibited neutrophil adhesion in a concentration-dependent manner; inhibition at 100 µg/mL ([4]; Neutrophil, Table 4, 13b (0.1 mg/ml) added to the perfusate, read-out: % Neutrophil Inhibition (percent inhibition of neutrophil accumulation)): 35%

Question: With OC[C@H]1O[C@@H](O[C@H]2[C@H](O)[C@@H](O)C(O)O[C@@H]2CO)[C@H](O)[C@@H](O)[C@H]1O (stereo partly shown) [single valent lactose, lactose] as the molecule, how does the pIC50 (mammalian hepatocytes) read?
Answer: 3.30

Question: For sulfatides, which “binding to P-Selectin” value (P-SELECTIN) is on record?
Answer: bind

Question: Which results are given for CCCCCCCCO[C@@H]1O[C@H](CO)[C@@H](O[C@@H]2O[C@H](CO)[C@H](O)[C@H](OS(=O)(=O)O)[C@H]2O)[C@H](O[C@@H]2O[C@@H](C)[C@@H](O)[C@@H](O)[C@@H]2O)[C@H]1O [Compound 26]?
Answer: inhibition of binding of E selectin to 2,3 sLex glycolipid (in words) [1]: inhibit binding of E selectin to 2,3 sLex glycolipid; % INHIBITION of E-selectin binding to sLeX ([1]; 0.5 mM): 0%; % INHIBITION of E-selectin binding to sLeX ([1]; 1.0 mM): 30%; % INHIBITION of E-selectin binding to sLeX ([1]; 2.0 mM): 50%; % INHIBITION of E-selectin binding to sLeX ([1]; 4.0 mM): 70%; % INHIBITION of L-selectin binding to sLeX ([2]; 0.5 mM): 0%; % INHIBITION of L-selectin binding to sLeX ([2]; 1.0 mM): 30%; % INHIBITION of L-selectin binding to sLeX ([2]; 2.0 mM): 30%; % INHIBITION of L-selectin binding to sLeX ([2]; 4.0 mM): 30%; % INHIBITION of P-selectin binding to sLeX ([5]; 0.5 mM): 0%; % INHIBITION of P-selectin binding to sLeX ([5]; 1.0 mM): 20%; % INHIBITION of P-selectin binding to sLeX ([5]; 2.0 mM): 40%; % INHIBITION of P-selectin binding to sLeX ([5]; 4.0 mM): 45%; inhibition of P selectin binding to 2,3 sLex glycolipid (in words) ([5]; as compared to L-selectin): better inhibitor of P selectin (as compared to L-selectin)

Source: patent US5728685A, “Methods of treating inflammation using cell adhesion inhibitors” (Glycomed Incorporated, priority 1995, dated 1998)
